Here are results for one compound from patent publication US20110117193A1, “ANTIRETROVIRAL DRUG FORMULATIONS FOR TREATMENT OF CHILDREN EXPOSED TO HIV/AIDS” (priority 2008, published 2011).

This data set can be described thus: pH of suspensions. It counts as physicochemical. The settings on record: 0.2% w/v solution in water. On the procedure:
The effect of the suspending agent and sweetener on the pH and viscosity of the suspensions was examined. AVICEL® RC 591, alone and in combination with other potential formulation components, was suspended in water. The pH of the suspensions was measured using a pH meter. The viscosity of the suspensions was measured on a Brookfield […] RV series viscometer: spindle size 4 at 20 rpm was used. The suspensions were visually inspected for signs of precipitation, sedimentation, and consistency.

Consider `OC[C@H]1O[C@H](O[C@]2(CCl)O[C@H](CCl)[C@@H](O)[C@@H]2O)[C@H](O)[C@@H](O)[C@H]1Cl` [sucralose], for which the pH of solution is listed as 6.4.
